Source: publication PMC5218480 (PLoS ONE, 2017)

Tested on: MV-4-11 cells
Assay: Gene expression microarray analysis (Affymetrix PrimeView) and GSEA
Type: cell-based, human
Parameters: RFU PODN (11730768_x_at) / Fold change /veh PODN (11730768_x_at) / RFU LINC00158 (11744669_a_at) / Fold change /veh LINC00158 (11744669_a_at) / RFU DUSP10 (11751237_a_at) / Fold change /veh DUSP10 (11751237_a_at) / RFU ID3 (11757404_x_at) / Fold change /veh ID3 (11757404_x_at) / RFU PLEKHG5 (11737974_s_at) / Fold change /veh PLEKHG5 (11737974_s_at) / RFU LRRC4B (11730491_at) / Fold change /veh LRRC4B (11730491_at) / RFU GIMAP4 (11747438_a_at) / Fold change /veh GIMAP4 (11747438_a_at) / RFU KRT8 (11758183_x_at) / Fold change /veh KRT8 (11758183_x_at) / RFU CNN1 (11734310_a_at) / Fold change /veh CNN1 (11734310_a_at) / RFU VPS37D (11726825_at) / Fold change /veh VPS37D (11726825_at) / RFU C10orf10 (11716522_x_at) / Fold change /veh C10orf10 (11716522_x_at) / RFU KIR2DL2 /// KIR2DL4 /// KIR2DL5A /// KIR2DL5B /// KIR2DS1 /// KIR2DS2 /// KIR2DS3 /// KIR2DS4 /// KIR3DL3 /// KIR3DL3 /// KIR3DS1 (11738374_at) / Fold change /veh KIR2DL2 /// KIR2DL4 /// KIR2DL5A /// KIR2DL5B /// KIR2DS1 /// KIR2DS2 /// KIR2DS3 /// KIR2DS4 /// KIR3DL3 /// KIR3DL3 /// KIR3DS1 (11738374_at) / RFU C1QL1 (11718748_at) / Fold change /veh C1QL1 (11718748_at) / RFU TMPRSS4 (11747572_a_at) / Fold change /veh TMPRSS4 (11747572_a_at) / RFU HAMP (11756126_x_at) / Fold change /veh HAMP (11756126_x_at) / RFU RNFT2 (11725882_a_at) / Fold change /veh RNFT2 (11725882_a_at) / RFU NR4A2 (11747474_a_at) / Fold change /veh NR4A2 (11747474_a_at) / RFU ABCC12 (11746883_a_at) / Fold change /veh ABCC12 (11746883_a_at) / RFU TMEM136 (11760407_x_at) / Fold change /veh TMEM136 (11760407_x_at) / RFU CLDN22 /// WWC2 (11732394_at) / Fold change /veh CLDN22 /// WWC2 (11732394_at) / RFU HLA-DPB1 (11760878_x_at) / Fold change /veh HLA-DPB1 (11760878_x_at) / RFU SPINT1 (11716480_a_at) / Fold change /veh SPINT1 (11716480_a_at) / RFU GAP43 (11754022_s_at) / Fold change /veh GAP43 (11754022_s_at) / RFU A4GNT (11735810_at) / Fold change /veh A4GNT (11735810_at) / RFU PRB3 (11715151_x_at) / Fold change /veh PRB3 (11715151_x_at) / RFU TUBB4B (11761932_at) / Fold change /veh TUBB4B (11761932_at) / RFU CAPN14 (11732068_a_at) / Fold change /veh CAPN14 (11732068_a_at) / RFU TMCC2 (11721928_a_at) / Fold change /veh TMCC2 (11721928_a_at) / RFU IRGQ (11745062_a_at) / Fold change /veh IRGQ (11745062_a_at) / RFU FAM174B (11720279_a_at) / Fold change /veh FAM174B (11720279_a_at) / RFU TMPRSS4 (11748680_a_at) / Fold change /veh TMPRSS4 (11748680_a_at) / RFU FAM212B (11763350_a_at) / Fold change /veh FAM212B (11763350_a_at) / RFU PLEKHG5 (11743358_a_at) / Fold change /veh PLEKHG5 (11743358_a_at) / RFU ZSCAN30 (11745921_a_at) / Fold change /veh ZSCAN30 (11745921_a_at) / RFU CMKLR1 (11741424_a_at) / Fold change /veh CMKLR1 (11741424_a_at) / RFU LOC101060620 /// MAPK8IP1 (11723275_at) / Fold change /veh LOC101060620 /// MAPK8IP1 (11723275_at) / RFU SPTSSB (11747773_x_at) / Fold change /veh SPTSSB (11747773_x_at) / RFU PRSS12 (11739890_at) / Fold change /veh PRSS12 (11739890_at) / RFU BIN1 (11741810_x_at) / Fold change /veh BIN1 (11741810_x_at) / RFU WNT11 (11732464_a_at) / Fold change /veh WNT11 (11732464_a_at) / RFU C10orf10 (11716521_a_at) / Fold change /veh C10orf10 (11716521_a_at) / RFU C5orf56 (11738089_at) / Fold change /veh C5orf56 (11738089_at) / RFU CYB561 (11721691_x_at) / Fold change /veh CYB561 (11721691_x_at) / RFU ANKRD19P (11752326_a_at) / Fold change /veh ANKRD19P (11752326_a_at) / RFU OR2T12 /// OR2T33 /// OR2T8 (11738714_s_at) / Fold change /veh OR2T12 /// OR2T33 /// OR2T8 (11738714_s_at) / RFU VCAN (11748164_a_at) / Fold change /veh VCAN (11748164_a_at) / RFU JSRP1 (11732532_at) / Fold change /veh JSRP1 (11732532_at) / RFU KRTAP10-11 (11738290_x_at) / Fold change /veh KRTAP10-11 (11738290_x_at) / RFU MYO3A (11730013_a_at) / Fold change /veh MYO3A (11730013_a_at) / RFU EBF3 (11725865_a_at) / Fold change /veh EBF3 (11725865_a_at) / RFU CAMK2N1 (11719241_x_at) / Fold change /veh CAMK2N1 (11719241_x_at) / RFU C5orf56 (11738088_a_at) / Fold change /veh C5orf56 (11738088_a_at) / RFU OLFML3 (11715873_a_at) / Fold change /veh OLFML3 (11715873_a_at) / RFU LOC100653217 /// NTM (11731650_a_at) / Fold change /veh LOC100653217 /// NTM (11731650_a_at) / RFU MAPK11 (11762145_a_at) / Fold change /veh MAPK11 (11762145_a_at) / RFU FIZ1 (11724087_x_at) / Fold change /veh FIZ1 (11724087_x_at) / RFU OASL (11726364_x_at) / Fold change /veh OASL (11726364_x_at) / RFU SOX15 (11748057_x_at) / Fold change /veh SOX15 (11748057_x_at) / RFU CD79A (11719716_a_at) / Fold change /veh CD79A (11719716_a_at) / RFU HIST1H1D (11736915_at) / Fold change /veh HIST1H1D (11736915_at) / RFU CASKIN2 (11723855_a_at) / Fold change /veh CASKIN2 (11723855_a_at) / RFU LOC730098 (11760151_x_at) / Fold change /veh LOC730098 (11760151_x_at) / RFU OR4N2 (11742367_at) / Fold change /veh OR4N2 (11742367_at) / RFU PRRT2 (11749266_a_at) / Fold change /veh PRRT2 (11749266_a_at) / RFU SNX32 (11753110_a_at) / Fold change /veh SNX32 (11753110_a_at) / RFU CDHR5 (11726645_a_at) / Fold change /veh CDHR5 (11726645_a_at) / RFU RCAN1 (11760418_a_at) / Fold change /veh RCAN1 (11760418_a_at) / RFU FAM167A (11723789_a_at) / Fold change /veh FAM167A (11723789_a_at) / RFU FAM26E (11764081_at) / Fold change /veh FAM26E (11764081_at) / RFU ISYNA1 (11749810_s_at) / Fold change /veh ISYNA1 (11749810_s_at) / RFU ACY1 (11761880_at) / Fold change /veh ACY1 (11761880_at) / RFU 11764098_at / Fold change /veh 11764098_at / RFU SAMD14 (11745864_x_at) / Fold change /veh SAMD14 (11745864_x_at) / RFU NPB (11741838_a_at) / Fold change /veh NPB (11741838_a_at) / RFU TMPRSS6 (11731388_a_at) / Fold change /veh TMPRSS6 (11731388_a_at) / RFU KRTAP10-2 (11738614_at) / Fold change /veh KRTAP10-2 (11738614_at) / RFU ARHGAP8 /// PRR5-ARHGAP8 (11727945_x_at) / Fold change /veh ARHGAP8 /// PRR5-ARHGAP8 (11727945_x_at) / RFU KRTAP5-7 /// NADSYN1 (11734609_at) / Fold change /veh KRTAP5-7 /// NADSYN1 (11734609_at) / RFU RASL12 (11751679_a_at) / Fold change /veh RASL12 (11751679_a_at) / RFU CDKN2B (11736163_a_at) / Fold change /veh CDKN2B (11736163_a_at) / RFU PRF1 (11729649_at) / Fold change /veh PRF1 (11729649_at) / RFU, ZNF638 /// ZNF638-IT1 / Fold change vs veh, ZNF638 /// ZNF638-IT1 / RFU, PANK3 / Fold change vs veh, PANK3 / RFU, SH3YL1 / Fold change vs veh, SH3YL1 / RFU, ZEB2 / Fold change vs veh, ZEB2 / RFU, NRIP1 / Fold change vs veh, NRIP1 / RFU, PTTG1IP / Fold change vs veh, PTTG1IP / RFU, CAPN2 / Fold change vs veh, CAPN2 / RFU, MED14 / Fold change vs veh, MED14 / RFU, SNORA58 / Fold change vs veh, SNORA58 / RFU, C1orf63 / Fold change vs veh, C1orf63 / RFU, LRRFIP1 / Fold change vs veh, LRRFIP1 / RFU, NDUFAF7 / Fold change vs veh, NDUFAF7 / RFU, SLC12A2 / Fold change vs veh, SLC12A2 / RFU, IBTK / Fold change vs veh, IBTK / RFU, ESF1 / Fold change vs veh, ESF1 / Fold change vs veh, TMEM50B / RFU, TAOK1 / Fold change vs veh, TAOK1 / RFU, ACBD3 / Fold change vs veh, ACBD3 / RFU, TMA16 / Fold change vs veh, TMA16 / RFU, RWDD3 / Fold change vs veh, RWDD3 / RFU, BCAT1 / Fold change vs veh, BCAT1 / RFU, EDEM3 / Fold change vs veh, EDEM3 / RFU, TMEM33 / Fold change vs veh, TMEM33 / RFU, WDR75 / Fold change vs veh, WDR75 / RFU, AHCTF1 / Fold change vs veh, AHCTF1 / RFU, TFRC / Fold change vs veh, TFRC / RFU, ZDHHC17 / Fold change vs veh, ZDHHC17 / RFU, NOM1 / Fold change vs veh, NOM1 / RFU, ARL8B / Fold change vs veh, ARL8B / RFU, ZBTB11 / Fold change vs veh, ZBTB11 / RFU, TAMM41 / Fold change vs veh, TAMM41 / RFU, KIAA1704 /// LOC100996395 / Fold change vs veh, KIAA1704 /// LOC100996395 / RFU, ING1 / Fold change vs veh, ING1 / RFU, TRMT61B / Fold change vs veh, TRMT61B / RFU, FUBP3 / Fold change vs veh, FUBP3 / RFU, TP53 / Fold change vs veh, TP53 / RFU, TNKS2 / Fold change vs veh, TNKS2 / RFU, ZFP14 / Fold change vs veh, ZFP14 / RFU, ACTR2 / Fold change vs veh, ACTR2 / RFU, PPP3R1 / Fold change vs veh, PPP3R1 / RFU, PIK3R1 / Fold change vs veh, PIK3R1 / RFU, HNRNPA1 / Fold change vs veh, HNRNPA1 / RFU, RNF170 / Fold change vs veh, RNF170 / RFU, ZNF28 / Fold change vs veh, ZNF28 / RFU, RNGTT / Fold change vs veh, RNGTT / RFU, OGT / Fold change vs veh, OGT / RFU, BRD1 / Fold change vs veh, BRD1 / RFU, MARS / Fold change vs veh, MARS / RFU, ZNF655 / Fold change vs veh, ZNF655 / RFU, FAHD1 / Fold change vs veh, FAHD1 / RFU, BDP1 / Fold change vs veh, BDP1 / RFU, LRRCC1 / Fold change vs veh, LRRCC1 / RFU, ARID1A / Fold change vs veh, ARID1A / RFU, ZNF146 / Fold change vs veh, ZNF146 / RFU, ZNF330 / Fold change vs veh, ZNF330 / RFU, GPN3 / Fold change vs veh, GPN3 / RFU, C9orf123 / Fold change vs veh, C9orf123 / RFU, N4BP2L2 / Fold change vs veh, N4BP2L2 / RFU, ARFIP1 / Fold change vs veh, ARFIP1 / RFU, FAM179B / Fold change vs veh, FAM179B / RFU, BCL10 / Fold change vs veh, BCL10 / RFU, UHRF1BP1L / Fold change vs veh, UHRF1BP1L / RFU, BET1 / Fold change vs veh, BET1 / RFU, CNOT2 / Fold change vs veh, CNOT2 / RFU, ZNF268 / Fold change vs veh, ZNF268 / Fold change vs veh, ZNF507 / RFU, DGCR2 / Fold change vs veh, DGCR2 / RFU, WDSUB1 / Fold change vs veh, WDSUB1 / Fold change vs veh, HSP90B1 /// MIR3652 / RFU, ADSS / Fold change vs veh, ADSS / RFU, GK / Fold change vs veh, GK / RFU, ZNF148 / Fold change vs veh, ZNF148 / RFU, TAF9 / Fold change vs veh, TAF9 / RFU, SLC1A5 / Fold change vs veh, SLC1A5 / RFU, SLMO2 / Fold change vs veh, SLMO2 / RFU, ABCC4 / Fold change vs veh, ABCC4 / RFU, LOC101060439 /// RAP1B / Fold change vs veh, LOC101060439 /// RAP1B / RFU, RFX7 / Fold change vs veh, RFX7 / RFU, GTPBP10 / Fold change vs veh, GTPBP10 / RFU, CNEP1R1 / Fold change vs veh, CNEP1R1 / RFU, BIVM-ERCC5 /// ERCC5 / Fold change vs veh, BIVM-ERCC5 /// ERCC5 / RFU, ILF3 / Fold change vs veh, ILF3 / RFU 11762660_at / Fold change /veh 11762660_at / RFU VCAN (11757783_s_at) / Fold change /veh VCAN (11757783_s_at) / RFU DDX43 (11728927_at) / Fold change /veh DDX43 (11728927_at) / RFU KRT8 (11758188_x_at) / Fold change /veh KRT8 (11758188_x_at) / RFU NKD1 (11759106_at) / Fold change /veh NKD1 (11759106_at) / RFU SRD5A1 (11742802_a_at) / Fold change /veh SRD5A1 (11742802_a_at) / RFU TPSAB1 /// TPSB2 (11721975_s_at) / Fold change /veh TPSAB1 /// TPSB2 (11721975_s_at) / RFU GSTM3 (11746129_a_at) / Fold change /veh GSTM3 (11746129_a_at) / RFU IL23R (11737362_x_at) / Fold change /veh IL23R (11737362_x_at) / RFU TMEM51 (11727254_a_at) / Fold change /veh TMEM51 (11727254_a_at) / RFU PIWIL2 (11732686_x_at) / Fold change /veh PIWIL2 (11732686_x_at) / RFU ORM1 (11744905_x_at) / Fold change /veh ORM1 (11744905_x_at) / RFU CCDC152 (11743942_at) / Fold change /veh CCDC152 (11743942_at) / RFU ECM1 (11717891_a_at) / Fold change /veh ECM1 (11717891_a_at) / RFU IL23R (11748794_a_at) / Fold change /veh IL23R (11748794_a_at) / RFU TNFAIP8L3 (11732012_x_at) / Fold change /veh TNFAIP8L3 (11732012_x_at) / RFU MBOAT4 (11741988_at) / Fold change /veh MBOAT4 (11741988_at) / RFU 11764193_at / Fold change /veh 11764193_at / RFU TMEM53 (11763286_at) / Fold change /veh TMEM53 (11763286_at) / RFU MAGEB2 (11727129_at) / Fold change /veh MAGEB2 (11727129_at) / RFU TMEM200A (11744735_a_at) / Fold change /veh TMEM200A (11744735_a_at) / RFU CCDC152 (11751479_a_at) / Fold change /veh CCDC152 (11751479_a_at) / RFU FAM211A (11726209_a_at) / Fold change /veh FAM211A (11726209_a_at) / RFU RGS16 (11746705_a_at) / Fold change /veh RGS16 (11746705_a_at) / RFU VCAN (11755009_s_at) / Fold change /veh VCAN (11755009_s_at) / RFU RHOB (11743442_s_at) / Fold change /veh RHOB (11743442_s_at) / RFU RGS16 (11720943_a_at) / Fold change /veh RGS16 (11720943_a_at) / RFU RGS16 (11720944_at) / Fold change /veh RGS16 (11720944_at) / RFU, VPS4B / Fold change vs veh, VPS4B / RFU, CREB1 / Fold change vs veh, CREB1 / RFU, DNAJC13 / Fold change vs veh, DNAJC13 / RFU, GNAQ / Fold change vs veh, GNAQ / RFU, CDK5R1 / Fold change vs veh, CDK5R1 / RFU, ZRANB3 / Fold change vs veh, ZRANB3 / RFU, CUL4A / Fold change vs veh, CUL4A / RFU, CCNY / Fold change vs veh, CCNY / RFU, UFL1 / Fold change vs veh, UFL1 / RFU, COG3 / Fold change vs veh, COG3 / RFU, DIAPH2 / Fold change vs veh, DIAPH2 / RFU, SKA2 / Fold change vs veh, SKA2 / RFU, AFF3 / Fold change vs veh, AFF3 / RFU, LMF1 / Fold change vs veh, LMF1 / RFU, IPO11 / Fold change vs veh, IPO11 / RFU, DFFB / Fold change vs veh, DFFB / RFU, FOXP1 / Fold change vs veh, FOXP1 / RFU, CARD8 / Fold change vs veh, CARD8 / RFU, STRN3 / Fold change vs veh, STRN3 / RFU, ADK / Fold change vs veh, ADK / RFU, RASSF2 / Fold change vs veh, RASSF2 / RFU, WIPF1 / Fold change vs veh, WIPF1 / RFU, LARP1B / Fold change vs veh, LARP1B / RFU, RASA1 / Fold change vs veh, RASA1 / RFU, RB1 / Fold change vs veh, RB1 / RFU, PPFIA1 / Fold change vs veh, PPFIA1 / RFU, MAT2A / Fold change vs veh, MAT2A / RFU, CCT5 / Fold change vs veh, CCT5 / RFU, WDR92 / Fold change vs veh, WDR92 / RFU, CUX1 / Fold change vs veh, CUX1 / RFU, TTC7A / Fold change vs veh, TTC7A / RFU, TMEM135 / Fold change vs veh, TMEM135 / RFU, DEPTOR / Fold change vs veh, DEPTOR / RFU, CPM / Fold change vs veh, CPM / RFU, DNAJB6 / Fold change vs veh, DNAJB6 / RFU, CACNA2D3 / Fold change vs veh, CACNA2D3 / RFU, DTX4 / Fold change vs veh, DTX4 / RFU, TFCP2 / Fold change vs veh, TFCP2 / RFU, GMCL1 /// GMCL1P1 / Fold change vs veh, GMCL1 /// GMCL1P1 / RFU, AEBP2 / Fold change vs veh, AEBP2 / RFU, SNHG1 /// SNORD22 /// SNORD25 /// SNORD26 /// SNORD27 /// SNORD28 /// SNORD29 /// SNORD31 / Fold change vs veh, SNHG1 /// SNORD22 /// SNORD25 /// SNORD26 /// SNORD27 /// SNORD28 /// SNORD29 /// SNORD31 / Fold change (Aza/veh), C12orf56 (ProbeSet 11735607_a_at) / Fold change (ACY-1035/veh), C12orf56 (ProbeSet 11735607_a_at) / Fold change (Aza/veh), FGFR1OP (ProbeSet 11751329_s_at) / Fold change (ACY-1035/veh), FGFR1OP (ProbeSet 11751329_s_at) / Fold change (Aza/veh), VPS36 (ProbeSet 11739960_a_at) / Fold change (ACY-1035/veh), VPS36 (ProbeSet 11739960_a_at) / RFU SYPL1 (11715823_x_at) / Fold change /veh SYPL1 (11715823_x_at) / RFU IGFBP7 (11715501_s_at) / Fold change /veh IGFBP7 (11715501_s_at) / RFU REEP3 (11722064_at) / Fold change /veh REEP3 (11722064_at) / RFU IGLL1 (11728026_x_at) / Fold change /veh IGLL1 (11728026_x_at): dose or concentration left out as unconfirmed
Details: ProbeSet 11725885_a_at; LIST B

Nc1ccc(-c2cccs2)cc1NC(=O)c1ccc2c(c1)cc(C1CC1)n2CCN1CCOCC1 [ACY-1035]
RFU, CNEP1R1: 81.80 RFU
